Test results: patent US20260174875A1 (Novo Nordisk A/S, priority 2023, published 2026)
Like-named read-outs stand apart in the source and are kept apart here. Numbered stars: 1 amine (or outer) side, 2 acyl side, 3 side chain; on linkers, the order of the positions; unused ones are H or OH. Square brackets hold non-standard residues; d marks the D form. Side chains are listed from the residue outwards. * marks the point of attachment. C20 diacid = O=C(O)CCCCCCCCCCCCCCCCCCC(=O)*; C18 diacid = O=C(O)CCCCCCCCCCCCCCCCC(=O)*; γGlu = O=C(O)[C@H](CCC(=O)[*:2])N[*:1]; AEEA = NCCOCCOCC(=O)O; Aib = CC(C)(N)C(=O)O

Tests used:
Format in all cases: cell-based
[1] = molecular target: T1, human GLP-1 receptor (hGLP-1R) (Homo sapiens, UniProt P43220); assay: GLP-1 receptor assay, method A (CRE-luciferase reporter, BHK cells)
T1 construct: expressed in transfected cells
T1 sequence (P43220 24-463): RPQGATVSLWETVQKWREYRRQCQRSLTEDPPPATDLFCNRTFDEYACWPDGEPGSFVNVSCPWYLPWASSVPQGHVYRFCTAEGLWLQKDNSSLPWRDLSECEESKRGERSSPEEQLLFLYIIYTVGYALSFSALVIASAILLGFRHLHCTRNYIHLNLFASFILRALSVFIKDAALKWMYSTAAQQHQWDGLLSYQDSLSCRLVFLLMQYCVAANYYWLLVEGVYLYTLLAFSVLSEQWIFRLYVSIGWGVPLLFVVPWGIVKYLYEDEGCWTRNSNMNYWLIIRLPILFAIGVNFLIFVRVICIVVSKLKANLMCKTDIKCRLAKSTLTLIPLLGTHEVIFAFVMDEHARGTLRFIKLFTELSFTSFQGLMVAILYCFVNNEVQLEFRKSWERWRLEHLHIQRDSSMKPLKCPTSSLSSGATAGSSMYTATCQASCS
Procedure: (§1) To assess how the activation of the receptors is potentially influenced by the presence of human serum albumin (HSA), the in vitro assays were performed in the absence of HSA and presence of 1% (w/v) HSA.
Cells at approximately 80-90% confluence were washed once in PBS (Gibco 14190-094) and loosened from the cell flasks with Versene (Gibco, 15040-033). […] Cells were aliquoted and stored at −180° C. until use.
(§2) The assay buffer consisted of DMEM without phenol red (Gibco, 11880-028) supplemented with 1× GlutaMAX (Gibco, 35050-038), 10 mM HEPES (Gibco, 15630-056), 1% (w/v) ovalbumin (Sigma, A5503) and 0.1% (v/v) Pluronic F-68 (Gibco, 24040-032) either with HSA or without HSA (Sigma, A9511).
Frozen stocks of hGLP-1R BHK CRE-Luc cells were thawed in a 37° C. water bath, washed once in PBS (Gibco 14190-094) and diluted to 1.5×10^6 (1.5E+6) cells/mL in assay buffer with or without 2% (w/v) HSA (Sigma, A9511). […] The assay plates were incubated for 3 hours at 37° C. in 5% CO2, left at room temperature for 5 minutes after which 100 μL steadylite Plus™ (PerkinElmer/Revvity, 6066759) was added to each well. Plates were sealed and incubated at room temperature with gentle shaking for 30 minutes while protected from light. Luminescence was detected on a luminescence plate reader e.g., a Synergy 2 (BioTek).

[2] = molecular target: T2, human GIP receptor (hGIPR) (Homo sapiens, UniProt P48546); assay: GIP receptor assay, method A (CRE-luciferase reporter, BHK cells)
T2 construct: expressed in transfected cells
T2 sequence (P48546 22-466): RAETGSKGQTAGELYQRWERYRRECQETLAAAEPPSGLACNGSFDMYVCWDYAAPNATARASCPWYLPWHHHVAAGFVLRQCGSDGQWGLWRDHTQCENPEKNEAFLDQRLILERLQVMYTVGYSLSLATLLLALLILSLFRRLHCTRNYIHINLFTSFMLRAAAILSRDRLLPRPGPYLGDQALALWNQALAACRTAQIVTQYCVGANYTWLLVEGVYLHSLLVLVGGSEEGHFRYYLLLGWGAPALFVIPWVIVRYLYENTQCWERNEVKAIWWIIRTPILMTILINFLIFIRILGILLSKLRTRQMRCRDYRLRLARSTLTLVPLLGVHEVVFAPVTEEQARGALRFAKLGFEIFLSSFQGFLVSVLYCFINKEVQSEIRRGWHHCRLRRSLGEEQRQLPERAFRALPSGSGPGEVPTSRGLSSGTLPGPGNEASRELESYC
Procedure: To assess how the activation of the receptors is potentially influenced by the presence of human serum albumin (HSA), the in vitro assays were performed in the absence of HSA and presence of 1% (w/v) HSA. Unless stated otherwise the reference to the “GIP receptor assay as described in Example 4” throughout the specification shall refer to the described herein assay procedure method A (hGIPR assay) in the absence of HSA.
Activation of the human GIP receptor leads to increased intra-cellular concentrations of cyclic AMP (cAMP) and the consequent transcription activation from promoters containing multiple copies of the cAMP response element (CRE). It is thus possible to measure GIP receptor activity using a CRE-luciferase reporter gene introduced into Baby Hamster Kidney (BHK) cells co-expressing the human GIP receptor.
Cells at about 80-90% confluency were washed once with PBS (Gibco 14190-094) and detached from the cell flasks with Versene (Gibco, 15040-066). After centrifugation, the cells were counted, resuspended and diluted to approximately 1.5-3.0×10^6 (1.5E+6 to 3.0E+6) cells/mL in Recovery Cell Culture Freezing Medium (Gibco, 12648-010) and stored at −180° C. in suitable aliquots until use.
as §2
On the day before the assay hGIPR BHK Cre-Luc cells were thawed and plated out in 96 well Culture Plates (PerkinElmer/Revvity, 6005680) at 5.0×10^3 (5.0E+3) cells/well in growth medium as described above. The plates were then incubated for 21-23 hours at 37° C. with 5% CO2. On the day of the assay GLP-1-/GIP-/amylin-receptor tri-agonists or reference compounds were diluted in assay buffer using a 7-point, 10-fold titration plus a blank (absence of compound). Each compound was diluted and tested in duplicates in each experiment. In the plates containing the cells the growth medium was removed, and cells were washed twice with 100 μL PBS (Gibco 14190-094). 50 μL of the test compound dilutions were added to the plates containing cells preceded by 50 μL assay buffer with or without 2% (w/v) HSA (Sigma, A9511). The cell plates were incubated for 3 hours in a 5% CO2 incubator at 37° C. The plates were then transferred to room temperature followed by addition of 100 μL steadylite Plus™ (PerkinElmer/Revvity, 6066759). The plates were sealed and shaken for 30 minutes at room temperature while protected from light. Finally, luminescence (as an indicator of receptor activation) was measured on a Mithras reader (Berthold Technologies, DE). The EC50-values [pM] were calculated by non-linear curve fitting applying a four-parameter logistic model (Hill slope=“shared value for all datasets”) using GraphPad Prism (GraphPad Software, Boston, MA, USA).

[3] = molecular target: T3, human amylin receptor (hAMYR3) (Homo sapiens, UniProt O60896+P30988); assay: Amylin receptor assay, method A (CRE-luciferase reporter, BHK cells)
T3 construct: host or cells: BHK cells (Hollex-1 line expressing hCTR(a) and CRE-Luc), further transfected with human RAMP3
T3 sequence (P30988 25-474): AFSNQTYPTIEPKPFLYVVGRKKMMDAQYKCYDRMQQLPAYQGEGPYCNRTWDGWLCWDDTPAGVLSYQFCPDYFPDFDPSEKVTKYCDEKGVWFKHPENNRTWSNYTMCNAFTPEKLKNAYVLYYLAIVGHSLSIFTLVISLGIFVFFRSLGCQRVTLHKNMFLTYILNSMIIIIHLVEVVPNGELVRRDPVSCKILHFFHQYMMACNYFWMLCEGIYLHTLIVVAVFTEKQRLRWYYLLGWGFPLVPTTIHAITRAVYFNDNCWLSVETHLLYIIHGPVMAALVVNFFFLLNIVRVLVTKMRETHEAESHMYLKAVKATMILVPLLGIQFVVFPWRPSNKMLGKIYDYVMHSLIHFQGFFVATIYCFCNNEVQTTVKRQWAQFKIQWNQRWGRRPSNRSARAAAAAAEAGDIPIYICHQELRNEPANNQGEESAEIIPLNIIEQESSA
T3 sequence (O60896 24-148): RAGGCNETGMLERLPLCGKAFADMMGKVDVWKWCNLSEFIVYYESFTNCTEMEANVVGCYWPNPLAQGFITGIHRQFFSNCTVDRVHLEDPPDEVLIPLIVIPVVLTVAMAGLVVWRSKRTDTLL
Procedure: as §1
It is thus possible to measure hAMYR3 activity using a CRE-luciferase reporter gene introduced into Baby Hamster Kidney (BHK) cells co-expressing the hAMYR3.
The cell line was further transfected with human receptor modifying protein 3 (RAMP3) using standard methods.
After centrifugation, the cell pellet was resuspended and diluted to approximately 2.5-4.0×10^6 (2.5E+6 to 4.0E+6) cells/mL in Recovery™ Cell Culture Freezing Medium (Gibco, 12648-010). Cells were aliquoted and stored at −180° C. until use.
as §2, with “15630-056) and” for “15630-056),”, “either with or without” for “and”, “24040-032) and” for “24040-032)”, “with” for “with HSA”
The plate was incubated over night at 37° C. in 5% CO2. […] Luminescence was detected on a luminescence plate reader e.g., a Synergy 2 (BioTek).

[4] = hGLP-1R Potency, 1% HSA, EC50, method A, in the presence of 1% HSA
[5] = method A, absence of HSA, read-out: hGLP-1R Potency, no HSA, EC50
[6] = hGIPR Potency, 1% HSA, EC50, method A, in the presence of 1% HSA
[7] = method A, absence of HSA, read-out: hGIPR Potency, no HSA, EC50
[8] = hAMYR3 Potency, 1% HSA, EC50, method A, in the presence of 1% HSA
[9] = method A, absence of HSA, read-out: hAMYR3 Potency, no HSA, EC50
[10] = hGLP-1R Potency, no HSA, EC50, method A, absence of HSA
[11] = hGIPR Potency, no HSA, EC50, method A, absence of HSA
[12] = hAMYR3 Potency, no HSA, EC50, method A, absence of HSA

| Substance | EC50 [1, 4] [nM] | EC50 [1, 5] [nM] | EC50 [2, 6] [nM] | EC50 [2, 7] [nM] | EC50 [3, 8] [nM] | EC50 [3, 9] [nM] | EC50 [1, 10] [nM] | EC50 [2, 11] [nM] | EC50 [3, 12] [nM] |
| --- | --- | --- | --- | --- | --- | --- | --- | --- | --- |
| Y[Aib]EGTFTSDYSILLEEQAAREFIEWLLAGGPSK([AEEA-AEEA-γGlu-C18 diacid])GEASHLSTAQTQRLSAELHELATLPRTETGSGSP-NH2 [Compound 34] |  | 0.0217 |  | 0.0017 |  | 0.00681 |  |  |  |
| Y[Aib]EGTFTSDYSILLEEQAAREFIEWLLAGGPSRGEASELSTAALGRLSAELHK([AEEA-AEEA-γGlu-C18 diacid])LATLPRTETGSGSP-NH2 [Compound 67] | 0.105 | 0.0154 | 0.037 | 0.00428 | 0.19 | 0.00366 |  |  |  |
| H[Aib]HGTFTSDYSILLEEQAAREFIEWLLAGGPSK([γGlu-C18 diacid])GAPPPSGGGEASHLSTAQTARLSAELHRLADLPRTETGSGSP-NH2 [Compound 112] | 0.336 |  | 0.321 |  | 0.269 |  | 0.00437 | 0.00242 | 0.00365 |
| Y[Aib]EGTFTSDYSILLEEQAAREFIEWLLAGGPSSGALAQTLAQTLASHLSTAQTQRLSAELHK([AEEA-AEEA-γGlu-C18 diacid])LATLPRTETGSGSP-NH2 [Compound 48] | 0.105 | 0.0648 | 0.054 | 0.00702 | 0.0785 | 0.0032 |  |  |  |
| Y[Aib]EGTFTSDYSILLEEQAAREFIEWLLAGGPSSK([γGlu-C20 diacid])APPPSGGGEASELSTAALGRLSAELHRLATLPRTETGSGSP-NH2 [Compound 42] |  | 0.0613 |  | 0.00801 |  | 0.00342 |  |  |  |
| Y[Aib]EGTFTSDYSILLEEQAAREFIEWLLAGGPSSGEASHLSTAQTQRLSAELHRLATLPK([AEEA-AEEA-γGlu-C18 diacid])TETGSGSP-NH2 [Compound 81] | 0.0514 | 0.016 | 0.0158 | 0.00331 | 0.188 | 0.00407 |  |  |  |
| H[Aib]HGTFTSDYSILLEEQAAREFIEWLLAGGPSK([AEEA-AEEA-γGlu-C18 diacid])GEASQLSTAALGRLSAELHRLADLPRTETGSGSP-NH2 [Compound 43] | 0.0415 |  | 0.186 |  | 0.0565 |  | 0.00431 | 0.00438 | 0.00313 |
| Y[Aib]EGTFTSDYSILLEEQAAREFIEWLLAGGPSSK([AEEA-AEEA-γGlu-C18 diacid])APPPSGGGEASELSTAALGRLSAELHRLATLPRTETGSGSP-NH2 [Compound 31] |  | 0.0478 |  | 0.00473 |  | 0.00269 |  |  |  |
| Y[Aib]EGTFTSDYSILLEEQAAREFIEWLLAGGPSK([γGlu-C20 diacid])GAPPPSGGGEASELSTAALGRLSAELHRLADLPRTETGSGSP-NH2 [Compound 41] |  |  |  |  |  |  | 0.0408 | 0.00502 | 0.00672 |
| Y[Aib]EGTFTSDYSILLEEQAAREFIEWLLAGGPSGGGGEASHLSTAQTQRLSAELHK([AEEA-AEEA-γGlu-C20 diacid])LATLPRTETGSGSP-NH2 [Compound 96] | 0.162 | 0.0168 | 0.03 | 0.00362 | 0.595 | 0.00373 |  |  |  |

Second part, led by results:

| EC50 [1, 4] [nM] | EC50 [1, 5] [nM] | EC50 [2, 6] [nM] | EC50 [2, 7] [nM] | EC50 [3, 8] [nM] | EC50 [3, 9] [nM] | Substance | EC50 [1, 10] [nM] | EC50 [2, 11] [nM] | EC50 [3, 12] [nM] |
| --- | --- | --- | --- | --- | --- | --- | --- | --- | --- |
| 0.0331 | 0.00524 | 0.0133 | 0.00314 | 0.0736 | 0.00242 | H[Aib]HGTFTSDYSILLEEQAAREFIEWLLAGGPSSGAGQAPGQAPGASHLSTAQTARLSAELHK([AEEA-AEEA-γGlu-C18 diacid])LATLPRTETGSGSP-NH2 [Compound 103] |  |  |  |
| 0.0386 | 0.00416 | 0.0325 | 0.0054 | 0.183 | 0.00545 | H[Aib]HGTFTSDYSILLEEQAAREFIEWLLAGGPSSGEASHLSTAALGRLSAELHRLATLPK([AEEA-AEEA-γGlu-C18 diacid])TETGSGSP-NH2 [Compound 90] |  |  |  |
| 0.015 | 0.00457 | 0.0115 | 0.00401 | 0.0599 | 0.00248 | H[Aib]HGTFTSDYSILLEEQAAREFIEWLLAGGPSSGALQAPGQAPLASHLSTAQTARLSAELHK([AEEA-AEEA-γGlu-C18 diacid])LATLPRTETGSGSP-NH2 [Compound 108] |  |  |  |
| 0.0111 | 0.00333 | 0.0103 | 0.0048 | 0.0312 | 0.00207 | H[Aib]HGTFTSDYSILLEEQAAREFIEWLLAGGPSSGALQAPGQAPGASHLSTAQTARLSAELHRLK([AEEA-AEEA-γGlu-C18 diacid])TLPRTETGSGSP-NH2 [Compound 106] |  |  |  |
| 0.0252 | 0.00366 | 0.0119 | 0.00265 | 0.11 | 0.00249 | H[Aib]HGTFTSDYSILLEEQAAREFIEWLLAGGPSGGEASHLSTAQTQRLSAELHK([AEEA-AEEA-γGlu-C18 diacid])LATLPRTETGSGSP-NH2 [Compound 75] |  |  |  |
| 0.13 | 0.00669 | 0.122 | 0.00511 | 0.0584 | 0.00331 | H[Aib]HGTFTSDYSILLEEQAAREFIEWLLAGGPSK([AEEA-AEEA-γGlu-C18 diacid])GAPPPSGGGASELSTAALGRLSAELHRLATLPRTETGSGSP-NH2 [Compound 86] |  |  |  |
